From article PMC8071544, “Synthesis and Bioactivities of Marine Pyran-Isoindolone Derivatives as Potential Antithrombotic Agents” (Marine Drugs, 2021)

How the values were obtained:
pro-uPA and plasminogen = molecular target: T1, pro-uPA and plasminogen (Homo sapiens, UniProt P00747); assay: Fibrinolytic activity in vitro (reciprocal activation of pro-uPA and plasminogen, urokinase activity by chromogenic substrate S-2444); assay type: biochemical; settings: for EC50 (fibrinolytic activity): in vitro, slope of kinetic curve A405 nm, S-2444, mean of two independent experiments; for fibrinolytic activity (in words): compared with FGFC1
T1 construct: purchased Sigma Aldrich (China)
Method: To evaluate the antithrombotic effect, all the synthesized FGFC1 derivatives were tested for their fibrinolytic activities in vitro. Fibrinolytic activity of each compound was expressed as 50% effective concentration (EC50), and FGFC1 was used as a positive control. The reciprocal activation of pro-uPA catalyzed plasminogen, which was measured based on urokinase activity by a chromogenic substrate S-2444. EC50 was calculated with the slope of kinetic curve of enzymatic reaction based on the reciprocal activation of pro-uPA and plasminogen (Figure 1 and Figure 2). The effect of introducing different hydrophobic moieties/groups to C-2, C-2′ and C-1′′ positions of FGFC1 was investigated by replacement of the protons on C2-OH/C2′-OH moieties and C1′′-COOH position, with methyl, ethyl, propyl, and bromo-substituted benzyl halide groups to yield derivatives F1–F7 (purity > 98% by HPLC analysis), which presented different urokinase activities and reciprocal activation of Pro-uPA-catalyzed plasminogen in vitro.
The fibrinolytic activities of compounds FGFC1 and derivatives F1–F7 were evaluated by plasmin method. Tris-HCl buffer solution (100 mmol/L, NaCl, pH 7.4), plasminogen (plg), BSA, and S-2444 were used as substrates. Derivatives F1–F7 dissolved in 0.05 mol/L Tris-HCl buffer containing NaCl (100 mmol/L) at pH 7.4 and the BSA used as a substrate.The concentrations of plg, BSA and S-2444 were 1.5 μmol/L, 5 μmol/L and 4 nmol/L, respectively. They were prepared in a 96-well microplate. After the predetermined sample solutions (compounds FGFC1 and F1–F7) were added, pro-uPA (20 μmol/L) was added into the 96-well microplate. The microplate was then cultivated at 37 °C for 60 min. The continuous variation trend of absorbance was determined for evaluation of fibrinolytic activity on the slope of the plots of A405 nm within 150 min. In the blank group, an equal volume of Tris-HCl solution was used as a blank control. All sample solutions were prepared by adding a small amount of DMSO (<5%, v/v) solution to dissolve the derivatives.

HeLa cells = assay: MTT cytotoxicity assay on HeLa cells; assay type: cell-based, human; settings: 0.25, 0.5, 1.0 mg/mL, Figure 2A
Method: (§1) The cytotoxicity of FGFC1 and derivative F6 on HeLa cell lines was screened by MTT assay. […] The introduction of substituted benzyl halide to the C-2, C-2′ and C-1″ position of FGFC1 decreased cytotoxicity, which increased with increasing concentration (0.25, 0.5, 1.0 mg/mL). Moreover, to evaluate the possible apoptosis of HeLa cells induced by F6, Fas/APO-1 (a type of cell-surface NGF/TNF receptor in cancer cell) assay was carried out (Figure 2B). To evaluate the immunogenic (inflammation) property, interleukin (IL-1) levels of derivative F6 was also tested by the IL-1 assays (Figure 2C). […] This meant that the ability of F6 to induce apoptosis was weaker than that of FGFC1. […] According to Figure 2B and Figure 2C, the negative effect of F6 on tissue cell was weaker than that of FGFC1.
HeLa (human cervical carcinoma) cells were incubated in medium (10% fetal bovine serum, 1% penicillin, 1% streptomycin) at 37 °C with 95% air and 5% CO2. Cells were passaged every 2–3 d and select exponential growth cells were used for further experiments.
The cell growth inhibitory activity of FGFC1 and derivative F6 on HeLa cell lines were determined by the MTT (3-(4,5-dimethylthiazol-2yl)-2,5-diphenyl tetrazolium bromide) assay as we previously reported. In addition, an equal volume of DMEM medium was added to the blank group.

IL-1 = IL-1 ELISA assay on HeLa cells; assay type: cell-based, human; settings: Figure 2C, compared with blank and FGFC1
Method: as §1
The cell culture method on the 96-well plate is in accordance with that in the MTT assay. The Elisa kit assay based on IL-1 of HeLa cells was consistent with the Fas/Apo-1 Elisa kit assay.

Fas/Apo-1 = Fas/Apo-1 ELISA assay on HeLa cells; assay type: cell-based, human; settings: Figure 2B, compared with blank and FGFC1
Method: as §1
Fas/Apo-1 assay was carried out according to the manufacturer’s protocol. A blank control group was set up. It was not added with the samples (FGFC1 and derivative F6) and the enzyme standard reagent, and the other steps were the same. The standard curve group and the sample group were tested. On the 96-well plate, the standard curve group was supplemented with 50 μL of the standard. […] After the addition of stop solution to reaction wells, the absorbance was recorded at OD 450 nm on an Enzyme-Labeled (microplate reader) Instrument after 15 min.

T1 sequence (P00747 20-810 limits assumed): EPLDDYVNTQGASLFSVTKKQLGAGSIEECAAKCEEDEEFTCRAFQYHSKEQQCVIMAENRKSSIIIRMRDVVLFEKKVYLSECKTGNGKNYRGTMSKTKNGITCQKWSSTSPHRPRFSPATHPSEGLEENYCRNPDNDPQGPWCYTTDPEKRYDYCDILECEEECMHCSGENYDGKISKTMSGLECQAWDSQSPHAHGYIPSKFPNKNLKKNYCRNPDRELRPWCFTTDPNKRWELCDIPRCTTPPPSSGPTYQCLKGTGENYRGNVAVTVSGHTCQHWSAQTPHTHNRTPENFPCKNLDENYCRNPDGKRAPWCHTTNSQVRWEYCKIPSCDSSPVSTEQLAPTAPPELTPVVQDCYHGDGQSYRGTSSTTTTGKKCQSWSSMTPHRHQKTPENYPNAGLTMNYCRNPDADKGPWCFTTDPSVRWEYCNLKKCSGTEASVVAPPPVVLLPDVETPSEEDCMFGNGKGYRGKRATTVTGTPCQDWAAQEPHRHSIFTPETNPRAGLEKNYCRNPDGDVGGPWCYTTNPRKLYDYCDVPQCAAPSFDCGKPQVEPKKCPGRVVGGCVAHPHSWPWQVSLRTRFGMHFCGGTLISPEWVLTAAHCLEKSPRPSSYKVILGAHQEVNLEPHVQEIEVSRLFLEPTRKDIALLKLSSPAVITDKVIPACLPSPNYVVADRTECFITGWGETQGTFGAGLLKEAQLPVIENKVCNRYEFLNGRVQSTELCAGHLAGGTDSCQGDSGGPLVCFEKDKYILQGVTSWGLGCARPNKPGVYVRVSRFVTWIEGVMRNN

Compound	EC50 (fibrinolytic activity) (pro-uPA and plasminogen)	further results
CCOC(=O)[C@@H](CCCN1Cc2c(cc(OCC)c3c2O[C@](C)(CC/C=C(\C)CCC=C(C)C)[C@H](O)C3)C1=O)N1Cc2c(cc(OCC)c3c2O[C@](C)(CC/C=C(\C)CCC=C(C)C)[C@H](O)C3)C1=O [F2]	87.1 µM	–
CC(C)=CCC/C(C)=C/CC[C@@]1(C)Oc2c(c(OCc3ccc(C#N)cc3)cc3c2CN(CCC[C@H](C(=O)OCc2ccc(C#N)cc2)N2Cc4c(cc(OCc5ccc(C#N)cc5)c5c4O[C@](C)(CC/C=C(\C)CCC=C(C)C)[C@H](O)C5)C2=O)C3=O)C[C@H]1O [F4]	82.8 µM	–
CCCOC(=O)[C@@H](CCCN1Cc2c(cc(OCCC)c3c2O[C@](C)(CC/C=C(\C)CCC=C(C)C)[C@H](O)C3)C1=O)N1Cc2c(cc(OCCC)c3c2O[C@](C)(CC/C=C(\C)CCC=C(C)C)[C@H](O)C3)C1=O [F3]	66.6 µM	–
CC(C)=CCC/C(C)=C/CC[C@@]1(C)Oc2c(c(OCc3ccc(OC(F)(F)F)cc3)cc3c2CN(CCC[C@H](C(=O)OCc2ccc(OC(F)(F)F)cc2)N2Cc4c(cc(OCc5ccc(OC(F)(F)F)cc5)c5c4O[C@](C)(CC/C=C(\C)CCC=C(C)C)[C@H](O)C5)C2=O)C3=O)C[C@H]1O [F5]	133.3 µM	fibrinolytic activity (in words) (pro-uPA and plasminogen): markedly decreased the fibrinolytic activity
COC(=O)[C@@H](CCCN1Cc2c(cc(OC)c3c2O[C@](C)(CC/C=C(\C)CCC=C(C)C)[C@H](O)C3)C1=O)N1Cc2c(cc(OC)c3c2O[C@](C)(CC/C=C(\C)CCC=C(C)C)[C@H](O)C3)C1=O [F1]	59.7 µM	–

The next lines start with results.

EC50 (fibrinolytic activity) (pro-uPA and plasminogen)	Compound	further results
119.6 µM	CC(C)=CCC/C(C)=C/CC[C@@]1(C)Oc2c(c(OCc3ccccc3Br)cc3c2CN(CCC[C@H](C(=O)OCc2ccccc2Br)N2Cc4c(cc(OCc5ccccc5Br)c5c4O[C@](C)(CC/C=C(\C)CCC=C(C)C)[C@H](O)C5)C2=O)C3=O)C[C@H]1O [F7]	fibrinolytic activity (in words) (pro-uPA and plasminogen): retained fibrinolytic activity
115.0 µM	CC(C)=CCC/C(C)=C/CC[C@@]1(C)Oc2c(c(O)cc3c2CN(CCC[C@H](C(=O)O)N2Cc4c(cc(O)c5c4O[C@](C)(CC/C=C(\C)CCC=C(C)C)[C@H](O)C5)C2=O)C3=O)C[C@H]1O [FGFC1, 2,5-Bis-[8-(4,8-dimethyl-nona-3,7-dienyl)-5,7-dihydroxy-8-methyl-3-keto-1,2,7,8-teraahydro-6H-pyran[a]isoindol-2-yl]-pentanoic acid, reference compound]	cytotoxicity on HeLa cell lines (HeLa cells): moderate cytotoxicity
42.3 µM	CC(C)=CCC/C(C)=C/CC[C@@]1(C)Oc2c(c(OCc3ccc(Br)cc3)cc3c2CN(CCC[C@H](C(=O)OCc2ccc(Br)cc2)N2Cc4c(cc(OCc5ccc(Br)cc5)c5c4O[C@](C)(CC/C=C(\C)CCC=C(C)C)[C@H](O)C5)C2=O)C3=O)C[C@H]1O [F6]	expression level of IL-1 (IL-1): obviously higher than that of blank, but it was less than that of FGFC1; fibrinolytic activity relative to FGFC1 (pro-uPA and plasminogen; ratio of EC50 vs FGFC1): 2.72 fold; cytotoxicity on HeLa cell lines (HeLa cells): moderate cytotoxicity; expression level of Fas (Fas/Apo-1): remarkably higher than that of the blank, but it was less than that of FGFC1
